Test results taken from patent US9452217B2, “Methods for potentiating immune response for the treatment of infectious diseases and cancer” (Nitor Therapeutics, priority 2013, dated 2016).

Legend:
Format in all cases: cell-based
human TLR2 = target: T1, human TLR2 (Homo sapiens, UniProt O60603); assay: TLR ligand screening: NF-κB activation (SEAP reporter) in HEK293 cells expressing TLR2; conditions: one concentration: Guanosine 100 uM, NTR001 10 uM, Inosine 100 uM; FIG. 2
T1 construct: expressed in transfected cells; host or cells: HEK293
Procedure: (§1) Method: TLR stimulation is tested by assessing NF-κB activation in HEK293 cells expressing a given TLR. The Secreted Embryonic Alkaline Phosphatase (SEAP) reporter is under the control of a promoter inducible by the transcription factor NF-κB. This reporter gene allows the monitoring of signaling through the TLR, based on the activation of NF-κB. The compounds are evaluated at one concentration and compared to control ligands. This step is performed in triplicate.

human TLR7 = target: T2, human TLR7 (Homo sapiens, UniProt Q9NYK1); assay: TLR ligand screening: NF-κB activation (SEAP reporter) in HEK293 cells expressing TLR7; conditions: one concentration: NTR001 10 uM, Inosine 100 uM; FIG. 2
T2 construct: expressed in transfected cells; host or cells: HEK293
T2 sequence (Q9NYK1 27-1049): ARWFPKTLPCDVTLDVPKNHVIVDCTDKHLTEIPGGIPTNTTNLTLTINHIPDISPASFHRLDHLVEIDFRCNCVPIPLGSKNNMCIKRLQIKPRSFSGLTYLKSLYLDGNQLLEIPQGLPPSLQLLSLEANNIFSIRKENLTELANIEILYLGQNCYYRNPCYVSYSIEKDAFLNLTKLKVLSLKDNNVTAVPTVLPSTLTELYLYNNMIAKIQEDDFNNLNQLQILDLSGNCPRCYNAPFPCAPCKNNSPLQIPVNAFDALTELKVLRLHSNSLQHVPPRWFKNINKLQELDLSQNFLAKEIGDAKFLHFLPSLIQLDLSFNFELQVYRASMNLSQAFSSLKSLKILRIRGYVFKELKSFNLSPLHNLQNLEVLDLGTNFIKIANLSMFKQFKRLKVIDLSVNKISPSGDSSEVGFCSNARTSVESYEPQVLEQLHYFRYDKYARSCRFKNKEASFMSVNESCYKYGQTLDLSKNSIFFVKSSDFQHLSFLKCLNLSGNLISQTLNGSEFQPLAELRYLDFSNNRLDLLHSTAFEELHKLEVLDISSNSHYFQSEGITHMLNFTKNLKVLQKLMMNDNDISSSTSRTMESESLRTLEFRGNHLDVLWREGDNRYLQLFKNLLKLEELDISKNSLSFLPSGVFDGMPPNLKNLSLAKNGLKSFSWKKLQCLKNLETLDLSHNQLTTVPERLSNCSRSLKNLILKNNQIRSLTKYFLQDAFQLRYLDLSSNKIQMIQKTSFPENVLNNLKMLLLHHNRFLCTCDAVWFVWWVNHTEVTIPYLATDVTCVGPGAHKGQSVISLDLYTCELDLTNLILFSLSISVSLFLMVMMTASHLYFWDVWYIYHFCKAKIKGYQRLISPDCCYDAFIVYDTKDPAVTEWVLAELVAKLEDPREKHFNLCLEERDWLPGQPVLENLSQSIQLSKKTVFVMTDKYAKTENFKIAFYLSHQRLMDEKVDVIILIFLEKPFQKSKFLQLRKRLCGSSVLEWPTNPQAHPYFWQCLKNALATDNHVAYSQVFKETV
Procedure: as §1

human TLR8 = target: T3, human TLR8 (Homo sapiens, UniProt Q9NR97); assay: TLR ligand screening: NF-κB activation (SEAP reporter) in HEK293 cells expressing TLR8; conditions: one concentration: NTR001 10 uM, Inosine 100 uM; FIG. 2
T3 construct: expressed in transfected cells; host or cells: HEK293
T3 sequence (Q9NR97 27-1041): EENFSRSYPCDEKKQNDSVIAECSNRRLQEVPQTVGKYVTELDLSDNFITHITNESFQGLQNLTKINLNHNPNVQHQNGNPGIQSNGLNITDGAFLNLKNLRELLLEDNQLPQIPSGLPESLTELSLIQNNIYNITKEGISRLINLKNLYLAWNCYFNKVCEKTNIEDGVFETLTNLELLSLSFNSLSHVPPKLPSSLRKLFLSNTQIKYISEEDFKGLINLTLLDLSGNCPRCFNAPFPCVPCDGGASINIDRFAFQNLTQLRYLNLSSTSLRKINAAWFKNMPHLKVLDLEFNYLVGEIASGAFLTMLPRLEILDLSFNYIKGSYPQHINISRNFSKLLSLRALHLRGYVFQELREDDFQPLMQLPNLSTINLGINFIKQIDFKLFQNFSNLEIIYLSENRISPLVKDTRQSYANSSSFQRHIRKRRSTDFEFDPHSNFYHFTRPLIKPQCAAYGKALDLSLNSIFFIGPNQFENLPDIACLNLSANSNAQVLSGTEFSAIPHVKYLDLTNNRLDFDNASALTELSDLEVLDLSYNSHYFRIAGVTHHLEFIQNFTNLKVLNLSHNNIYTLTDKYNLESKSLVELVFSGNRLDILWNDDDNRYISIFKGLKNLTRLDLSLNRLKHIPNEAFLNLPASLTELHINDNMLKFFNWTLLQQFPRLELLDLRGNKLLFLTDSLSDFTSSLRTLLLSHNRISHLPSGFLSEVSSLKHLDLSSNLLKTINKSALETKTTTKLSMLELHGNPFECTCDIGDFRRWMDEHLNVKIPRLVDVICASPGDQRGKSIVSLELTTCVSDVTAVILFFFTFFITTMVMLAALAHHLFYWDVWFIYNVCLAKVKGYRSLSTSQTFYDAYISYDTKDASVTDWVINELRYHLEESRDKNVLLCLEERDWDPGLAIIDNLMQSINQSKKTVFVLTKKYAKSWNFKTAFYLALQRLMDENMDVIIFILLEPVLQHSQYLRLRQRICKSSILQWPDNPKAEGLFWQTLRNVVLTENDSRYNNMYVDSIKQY
Procedure: as §1

T1 sequence (O60603 21-784): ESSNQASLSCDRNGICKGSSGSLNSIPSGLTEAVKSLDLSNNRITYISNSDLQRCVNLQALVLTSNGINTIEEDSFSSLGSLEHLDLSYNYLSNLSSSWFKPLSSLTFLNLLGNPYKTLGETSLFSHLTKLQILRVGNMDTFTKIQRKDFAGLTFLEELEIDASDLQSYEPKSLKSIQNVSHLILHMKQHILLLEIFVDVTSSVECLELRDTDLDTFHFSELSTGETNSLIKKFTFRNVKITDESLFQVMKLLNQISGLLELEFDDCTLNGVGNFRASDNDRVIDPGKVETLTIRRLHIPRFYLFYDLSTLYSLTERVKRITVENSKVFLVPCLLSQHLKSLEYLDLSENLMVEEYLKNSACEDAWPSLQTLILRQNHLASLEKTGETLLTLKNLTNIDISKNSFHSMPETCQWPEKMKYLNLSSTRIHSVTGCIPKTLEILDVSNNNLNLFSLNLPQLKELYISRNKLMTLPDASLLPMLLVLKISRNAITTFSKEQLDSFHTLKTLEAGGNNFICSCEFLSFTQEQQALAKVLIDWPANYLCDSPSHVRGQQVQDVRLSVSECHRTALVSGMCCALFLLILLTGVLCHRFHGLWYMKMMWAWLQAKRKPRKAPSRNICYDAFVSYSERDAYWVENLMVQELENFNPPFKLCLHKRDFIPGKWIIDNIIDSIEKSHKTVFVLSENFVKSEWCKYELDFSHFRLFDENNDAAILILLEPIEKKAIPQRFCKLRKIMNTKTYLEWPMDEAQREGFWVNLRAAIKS

OC[C@H]1O[C@@H](n2cnc3c(O)ncnc32)[C@H](O)[C@@H]1O [Inosine]
do not exhibit a stimulatory effect: stimulatory effect on human TLR2 (human TLR2) | stimulatory effect on human TLR7 (human TLR7) | stimulatory effect on human TLR8 (human TLR8)

O=c1[nH]cnc2c([C@@H]3N[C@H](CO)[C@@H](O)[C@H]3O)c[nH]c12 [NTR001, 7-[(2S,3S,4R,5R)-3,4-dihydroxy-5-(hydroxymethyl)-2-pyrrolidinyl]-1,5-dihydro-4H-pyrrolo [3,2-d]pyrimidin-4-one]
do not exhibit a stimulatory effect: stimulatory effect on human TLR2 (human TLR2) | stimulatory effect on human TLR7 (human TLR7) | stimulatory effect on human TLR8 (human TLR8)
